Source: patent publication US20050009787A1, “Micronutrient phosphates as dietary and health supplements” (priority 2001, published 2005)

How the values were obtained:
[1] = Bioavailability of tocopheryl phosphate in rats (tocopheryl phosphate in liver, ES/MS); type: in vivo, male Sprague-Dawley rats; details: rat
Experimental: The rats were dosed using the following protocol: • (a) A single dose of the compound was administered to male Sprague-Dawley rats (see Table 1). Oral gavage was with an 18 g gavage needle and 1 ml syringe. Intravenous was with a 26 g hypodermic needle and 1 ml syringe. • (b) Twenty four hours after administrations, the rats were anaesthetized with 60 mg/kg of Nembutal (an anaesthetic from Meril, USA) by intra peritoneal injection. • (c) Once the rats were under deep anaesthesia, a sample of blood was taken from the tail vein, and the femoral vein was exposed and injected with 500 units of heparin. The abdominal cavity was opened and the rat perfused with saline. The liver, heart, epidydimal fat pad, hind-leg muscle and brain was removed and frozen in liquid nitrogen.
The livers were extracted according to the following method: • (a) Homogenise 1 g of liver in 10 ml dichloromethane. • (b) Add 0.1 mg of ditocopheryl phosphate (1 mg/ml in 50% tetrahydrofuran) as an internal standard. • (c) Mix using homogeniser and centrifuge sample. • (d) Remove and evaporate dichloromethane. • (e) Add 9 ml of KOH (2M) and stir for one hour at room temperature. • (f) Add 10 ml hexane, shake and remove hexane (upper) layer. • (g) Add 10 ml HCl (2M) to the 9 ml KOH (2M) solution. • (h) Add 10 ml hexane, shake and remove hexane layer. • (i) Evaporate hexane layer to dryness.
The extracts were analysed and quantitated for TP (μg) content by electrospray mass spectrometry using the established calibration curve (tocopheryl phosphate vs ditocopheryl phosphate).
ES/MS analysis conditions: Sample was dissolved in 1 ml tetrahydrofuran (THF) containing 1% ammonia, 20 μl was injected into the sample loop. The sample was eluted with THF:water (9:1) 20 μl/min. Mass spectrometric analysis was conducted in negative ion mode with cone voltage of 40V using Micromass Platform.

[2] = Stability of tocopheryl phosphate arginine complex in a beverage (pH, turbidity, degradation); type: physicochemical
Experimental: Four ml was added to each 500 ml bottle using sterile conditions. Three treatment groups were used for each drink: 4° C., 37° C. and room temperature (RT). The drinks were monitored for bacterial growth and contamination on a weekly basis, both visually, and by plating a sample onto LB agar plates, which were grown for 48 hours at 37° C.

[3] = cited from earlier work

Tocopheryl phosphate
amount of tocopheryl phosphate detected in the livers ([1]; enteric coating preparation or oral solution): increase | amount of tocopheryl phosphate present in the liver after 24 hours ([1]; intravenous administration, vs controls): significant increase | Tocopheryl phosphate in liver ([1]; intravenous, 10 mg/kg single dose, 24 h after administration): 24.0 µg/g | Tocopheryl phosphate in liver ([1]; intravenous, 30 mg/kg single dose, 24 h): 28.0 µg/g | Tocopheryl phosphate in liver ([1]; oral (enteric coated), 30 mg/kg single dose, 24 h): 19.3 µg/g | Tocopheryl phosphate in liver ([1]; oral, 10 mg/kg single dose, 24 h): 19.2 µg/g | Tocopheryl phosphate in liver ([1]; oral, 30 mg/kg single dose, 24 h): 18.4 µg/g

tocopheryl phosphate arginine complex
Turbidity ([2]; blue Musashi drink with TP, 4° C.): 12.54 NTU | Turbidity ([2]; blue Musashi drink with TP, 37° C.): 28.55 NTU | Turbidity ([2]; blue Musashi drink with TP, RT): 24.05 NTU | amount of degradation of the complex ([2]; in acidic drinks, at the pH required for biological stability): negligible | Turbidity ([2]; orange Musashi drink with TP, 4° C.): 232.0 NTU | Turbidity ([2]; orange Musashi drink with TP, 37° C.): 220.0 NTU | Turbidity ([2]; orange Musashi drink with TP, RT): 224.0 NTU

CC(=O)Oc1c(C)c(C)c2c(c1C)CCC(C)(CCC[C@H](C)CCC[C@H](C)CCCC(C)C)O2 (some centres unmarked) [Tocopheryl acetate, reference compound]
amount of tocopheryl phosphate present compared to the controls ([1]; oral administration): did not result in a significant increase

COC1=C(OC)C(=O)C(C/C=C(\C)CC/C=C(\C)CC/C=C(\C)CC/C=C(\C)CC/C=C(\C)CC/C=C(\C)CC/C=C(\C)CC/C=C(\C)CC/C=C(\C)CCC=C(C)C)=C(C)C1=O [CoQ10, ubiquinone]
destruction of CoQ10 by boiling ([3]; boiling): no detectable destruction | destruction of CoQ10 by frying ([3]; frying): 14-32%
